According to PMC6094173, “Releasable and traceless PEGylation of arginine-rich antimicrobial peptides” (Chemical Science, 2017):
Square brackets hold non-standard residues; d marks the D form. Peptide text beside a SMILES is read from it. * marks the point of attachment. FITC = O=C1OC2(c3ccc(O)cc3Oc3cc(O)ccc32)c2ccc(NC(=S)*)cc21; Ahx = NCCCCCC(=O)O

Tests used:
E. coli B = format: cell-based, Escherichia coli B; conditions: 16 h
Method: (§1) In order to validate that the PEGylated AMPs are resistant to proteolysis, [3 + 2a] (2 kDa) was incubated in ∼90% human serum (final concentration) spiked with 0.01 wt% trypsin for up to 24 h. To prevent de-PEGylation during this incubation period (i.e., to test the protease-resistance of the conjugate rather than the released AMP (known to be degradable; vide infra)), the concentration of [3 + 2a] was maintained high, and a small excess of free 2a was kept in solution. Based on Fig. 2 and 4, these conditions promote the forward PEGylation reaction and disfavor de-PEGylation. Following the incubation period (1 h, 6 h, or 24 h), serum proteins and trypsin were removed to stop proteolysis, and the integrity of the AMP 3 within the conjugate was evaluated via its anti-proliferative effect on E. coli. […]
reaction by HPLC using the fluorescence detector. Kinetics were monitored in triplicate. […]
To determine peptide content, a known mass of conjugate was dissolved in 500 µL D2O, and the absorbance of the solution at 452 nm (the FITC dye on the peptide) was compared to a standard curve obtained with the pure peptide. Then, to deter mine the number of moles of mPEG within this solution, a small amount (5 µL) of dimethyl sulfoxide was quantitatively added to a known volume of the D2O solution, and a 1H NMR spectrum recorded. […]

trypsin = experiment: Resistance to proteolysis in human serum spiked with trypsin, read out by antibacterial activity; format: in vitro ADME; conditions: ∼90% human serum with 0.01 wt% trypsin, r.t.; read-out anti-proliferative effect on E. coli
Method: as §1
[…] 5 h t o obtain mid-logarithmic phase organisms (10^9 cfu· mL –1). […] After this period, proteins were immediately removed by addition of 1.5 mL acetonitrile, sedimentation of precipitate by centrifugation, quantitative recovery of the supernatant, and drying by freeze-drying (FreeZone 4.5, Labconco). […] After addition of analyte to the w el l, the mi cr op lat e was in cub at ed at 37 °C for 16 h with shaking, and growth inhibition was determined by measuring absorbance at 620 nm using a Cytation 5 multi- mode microplate reader (BioTek Inc., VT). […]

With `CC[C@@H](C)[C@@H](NC(=O)[C@H](CCCNC(=N)N)NC(=O)[C@H](CCC(N)=O)NC(=O)[C@@H](NC(=O)[C@H](NC(=O)[C@H](CCCNC(=N)N)NC(=O)[C@H](CCCCN)NC(=O)[C@H](Cc1ccccc1)NC(=O)CNC(=O)CCCCCNC(=S)Nc1ccc2c(c1)C(=O)OC21c2ccc(O)cc2Oc2cc(O)ccc21)[C@H](C)CC)C(C)C)C(=O)N[C@@H](CCCCN)C(=O)N[C@@H](CC(=O)O)C(=O)N[C@@H](Cc1ccccc1)C(=O)N[C@H](CC(C)C)C(=O)N[C@@H](CCCNC(=N)N)C(=O)N[C@@H](CC(N)=O)C(=O)N[C@@H](CC(C)C)C(=O)N[C@H](C(N)=O)C(C)C` [compound 3] ({FITC-Ahx}-GFKR[dI]VQR[dI]KDF[dL]RNLV-NH2) the IC50 (E. coli B) was 8 ± 5 µM and the “Time to loss of antimicrobial properties in trypsin-spiked serum” value (trypsin) was “less than 6 h”.
